From PubChem BioAssay AID248 (DTP/NCI, 2004)
Values joined by “and” are separate entries in the source; they are usually repeats but may differ in a detail not shown here. Identical values can stand only once. Inconclusive results and toxic doses are left out.

Tested on: L1210 leukemia ip in BDF1 mice, survival T/C
Assay: NCI In Vivo Anticancer Drug Screen. Data for tumor model L1210 Leukemia (intraperitoneal) in B6D2F1 (BDF1) mice
Details: higher = longer survival
Outline: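 Ratio derived from survival: compound-dosed mice over vehicle-dosed mice, all bearing a transplantable tumor.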

[1] = endpoint: mean survival time, dose: 100.0 mg/kg/injection, schedule: Q04DX003 (ip), vehicle: saline with Tween-80
[2] = endpoint: mean survival time, dose: 200.0 mg/kg/injection, schedule: Q04DX003 (ip), vehicle: saline with Tween-80
[3] = endpoint: mean survival time, dose: 100.0 mg/kg/injection, schedule: Q01DX001 (ip), vehicle: carboxymethylcellulose (CMC)
[4] = endpoint: mean survival time, dose: 200.0 mg/kg/injection, schedule: Q01DX001 (ip), vehicle: carboxymethylcellulose (CMC)
[5] = endpoint: mean survival time, dose: 400.0 mg/kg/injection, schedule: Q01DX001 (ip), vehicle: carboxymethylcellulose (CMC)
[6] = endpoint: mean survival time, dose: 50.0 mg/kg/injection, schedule: Q01DX009 (ip), vehicle: saline with Tween-80
[7] = endpoint: mean survival time, dose: 100.0 mg/kg/injection, schedule: Q01DX009 (ip), vehicle: saline with Tween-80
[8] = endpoint: mean survival time, dose: 100.0 mg/kg/injection, schedule: Q01DX001 (ip), vehicle: other
[9] = endpoint: mean survival time, dose: 200.0 mg/kg/injection, schedule: Q01DX001 (ip), vehicle: other
[10] = endpoint: mean survival time, dose: 200.0 mg/kg/injection, schedule: Q01DX001 (ip), vehicle: saline
[11] = endpoint: mean survival time, dose: 400.0 mg/kg/injection, schedule: Q01DX001 (ip), vehicle: other
[12] = endpoint: mean survival time, dose: 400.0 mg/kg/injection, schedule: Q01DX001 (ip), vehicle: saline
[13] = endpoint: mean survival time, dose: 100.0 mg/kg/injection, schedule: Q01DX001 (ip), vehicle: saline

## COc1cccc(C2NC(=O)N3C(c4cccc(OC)c4)NC(=O)N23)c1 (stereo unspecified)
endpoint: mean survival time, dose: 100.0 mg/kg/injection, schedule: Q01DX009 (ip), vehicle: gum acacia
  T/C: 98 % of control
endpoint: mean survival time, dose: 100.0 mg/kg/injection, schedule: Q04DX003 (ip), vehicle: gum acacia
  T/C: 97 % of control
endpoint: mean survival time, dose: 200.0 mg/kg/injection, schedule: Q01DX009 (ip), vehicle: gum acacia
  T/C: 91 % of control
endpoint: mean survival time, dose: 200.0 mg/kg/injection, schedule: Q04DX003 (ip), vehicle: gum acacia
  T/C: 95 % of control
endpoint: mean survival time, dose: 400.0 mg/kg/injection, schedule: Q01DX009 (ip), vehicle: gum acacia
  T/C: 91 % of control

## Clc1cc2c(c3c1CONC3)OCO2
[1]
  T/C: 92 % of control
[2]
  T/C: 90 % of control
endpoint: mean survival time, dose: 400.0 mg/kg/injection, schedule: Q04DX003 (ip), vehicle: saline with Tween-80
  T/C: 100 % of control

## CCOC(=O)c1ccc(NC(=O)Oc2ccc(SC)cc2)cc1
endpoint: mean survival time, dose: 100.0 mg/kg/injection, schedule: Q01DX009 (ip), vehicle: Klucel (hydroxypropylcellulose) (HPC)
  T/C: 90 % of control
endpoint: mean survival time, dose: 200.0 mg/kg/injection, schedule: Q01DX009 (ip), vehicle: Klucel (hydroxypropylcellulose) (HPC)
  T/C: 94 % of control
endpoint: mean survival time, dose: 400.0 mg/kg/injection, schedule: Q01DX009 (ip), vehicle: Klucel (hydroxypropylcellulose) (HPC)
  T/C: 94 % of control

## C[N+]1(C2CC3CCC2C3=O)CCOCC1 (stereo unspecified)
endpoint: mean survival time, dose: 75.0 mg/kg/injection, schedule: Q01DX001 (ip), vehicle: saline
  T/C: 97 % of control
endpoint: mean survival time, dose: 150.0 mg/kg/injection, schedule: Q01DX001 (ip), vehicle: saline
  T/C: 98 % of control

## CN(C)c1nc2ccccc2o1
[3]
  T/C: 94 % of control
[4]
  T/C: 102 % of control
[5]
  T/C: 105 % of control

## FC(F)(F)C(F)(F)C(F)(F)c1nc2nc(Cl)c(Cl)nc2[nH]1
endpoint: mean survival time, dose: 25.0 mg/kg/injection, schedule: Q01DX009 (ip), vehicle: saline with Tween-80
  T/C: 111 % of control
[6]
  T/C: 96 % of control and 100 % of control
[1]
  T/C: 91 % of control
[2]
  T/C: 93 % of control

## COC1/C=C/OC2(C)Oc3c(C)c(O)c4c(O)c(c(/C=N/N5C(C)CN(Cc6ccc(C)cc6)CC5C)c(O)c4c3C2=O)NC(=O)C(C)=C/C=C/C(C)C(O)C(C)C(O)C(C)C(OC(C)=O)C1C (stereo unspecified)
[7]
  T/C: 94 % of control

## Cc1cc(-n2cnc3c(Cl)ncnc32)ccc1[N+](=O)[O-]
endpoint: mean survival time, dose: 50.0 mg/kg/injection, schedule: Q01DX001 (ip), vehicle: carboxymethylcellulose (CMC)
  T/C: 110 % of control
[3]
  T/C: 101 % of control
[4]
  T/C: 98 % of control
[5]
  T/C: 112 % of control

## O=c1nc(NC(=S)Nc2ccn(C3OC(CO)C(O)C3O)c(=O)n2)ccn1C1OC(CO)C(O)C1O (stereo unspecified)
endpoint: mean survival time, dose: 50.0 mg/kg/injection, schedule: Q01DX001 (ip), vehicle: other
  T/C: 104 % of control
endpoint: mean survival time, dose: 50.0 mg/kg/injection, schedule: Q01DX001 (ip), vehicle: water
  T/C: 103 % of control and 106 % of control and 114 % of control
[8]
  T/C: 110 % of control
endpoint: mean survival time, dose: 100.0 mg/kg/injection, schedule: Q01DX001 (ip), vehicle: water
  T/C: 106 % of control
endpoint: mean survival time, dose: 100.0 mg/kg/injection, schedule: Q01DX005 (ip), vehicle: saline
  T/C: 168 % of control and 188 % of control
[9]
  T/C: 109 % of control and 116 % of control
[10]
  T/C: 158 % of control
endpoint: mean survival time, dose: 200.0 mg/kg/injection, schedule: Q01DX005 (ip), vehicle: saline
  T/C: 206 % of control and 218 % of control
[11]
  T/C: 193 % of control
[12]
  T/C: 217 % of control
endpoint: mean survival time, dose: 400.0 mg/kg/injection, schedule: Q01DX001 (ip), vehicle: water
  T/C: 171 % of control and 215 % of control
endpoint: mean survival time, dose: 600.0 mg/kg/injection, schedule: Q01DX001 (ip), vehicle: other
  T/C: 163 % of control
endpoint: mean survival time, dose: 800.0 mg/kg/injection, schedule: Q01DX001 (ip), vehicle: saline
  T/C: 452 % of control
endpoint: mean survival time, dose: 800.0 mg/kg/injection, schedule: Q01DX001 (ip), vehicle: water
  T/C: 196 % of control and 177 % of control and 361 % of control
endpoint: mean survival time, dose: 1600.0 mg/kg/injection, schedule: Q01DX001 (ip), vehicle: water
  T/C: 368 % of control
endpoint: median survival time, dose: 12.5 mg/kg/injection, schedule: Q03HX024 (ip), vehicle: saline
  T/C: 180 % of control
endpoint: median survival time, dose: 25.0 mg/kg/injection, schedule: Q03HX024 (ip), vehicle: saline
  T/C: 180 % of control
endpoint: median survival time, dose: 50.0 mg/kg/injection, schedule: Q03HX024 (ip), vehicle: saline
  T/C: 295 % of control
endpoint: median survival time, dose: 100.0 mg/kg/injection, schedule: Q01DX009 (ip), vehicle: saline
  T/C: 190 % of control
endpoint: median survival time, dose: 200.0 mg/kg/injection, schedule: Q01DX001 (oral), vehicle: saline
  T/C: 104 % of control
endpoint: median survival time, dose: 200.0 mg/kg/injection, schedule: Q01DX009 (ip), vehicle: saline
  T/C: 152 % of control
endpoint: median survival time, dose: 200.0 mg/kg/injection, schedule: Q04DX003 (ip), vehicle: saline
  T/C: 195 % of control
endpoint: median survival time, dose: 400.0 mg/kg/injection, schedule: Q01DX001 (ip), vehicle: saline
  T/C: 185 % of control
endpoint: median survival time, dose: 400.0 mg/kg/injection, schedule: Q01DX001 (oral), vehicle: saline
  T/C: 104 % of control
endpoint: median survival time, dose: 400.0 mg/kg/injection, schedule: Q04DX003 (ip), vehicle: saline
  T/C: 233 % of control
endpoint: median survival time, dose: 800.0 mg/kg/injection, schedule: Q01DX001 (ip), vehicle: saline
  T/C: 233 % of control
endpoint: median survival time, dose: 800.0 mg/kg/injection, schedule: Q01DX001 (oral), vehicle: saline
  T/C: 100 % of control
endpoint: median survival time, dose: 800.0 mg/kg/injection, schedule: Q04DX003 (ip), vehicle: saline
  T/C: 342 % of control
endpoint: median survival time, dose: 1600.0 mg/kg/injection, schedule: Q01DX001 (ip), vehicle: saline
  T/C: 204 % of control

## O=C(O)CCCN1CCCCC1
endpoint: mean survival time, dose: 100.0 mg/kg/injection, schedule: Q04DX002 (ip), vehicle: saline
  T/C: 103 % of control
endpoint: mean survival time, dose: 200.0 mg/kg/injection, schedule: Q04DX002 (ip), vehicle: saline
  T/C: 100 % of control
endpoint: mean survival time, dose: 400.0 mg/kg/injection, schedule: Q04DX002 (ip), vehicle: saline
  T/C: 100 % of control

## CC(=O)OC(C(N)=O)C(OC(C)=O)C(=O)O (stereo unspecified)
endpoint: mean survival time, dose: 100.0 mg/kg/injection, schedule: Q04DX003 (ip), vehicle: water
  T/C: 96 % of control
endpoint: mean survival time, dose: 200.0 mg/kg/injection, schedule: Q04DX003 (ip), vehicle: water
  T/C: 100 % of control
endpoint: mean survival time, dose: 400.0 mg/kg/injection, schedule: Q04DX003 (ip), vehicle: water
  T/C: 97 % of control

## Cc1ccc(C2(C)CC/C(=N\NC(=O)c3ccccc3)c3cc(C)c(C)cc32)cc1C (stereo unspecified)
[13]
  T/C: 97 % of control
[10]
  T/C: 98 % of control
[12]
  T/C: 104 % of control

## O=C1CCCC/C1=C1/C(=O)Nc2ccccc21
[6]
  T/C: 104 % of control
[7]
  T/C: 118 % of control
endpoint: mean survival time, dose: 200.0 mg/kg/injection, schedule: Q01DX009 (ip), vehicle: saline with Tween-80
  T/C: 110 % of control

## CSC(c1ccc(Oc2ccccc2)cc1)=[N+]1CCCCC1
endpoint: mean survival time, dose: 9.38 mg/kg/injection, schedule: Q01DX001 (ip), vehicle: steriod suspending solution
  T/C: 105 % of control
endpoint: mean survival time, dose: 18.75 mg/kg/injection, schedule: Q01DX001 (ip), vehicle: steriod suspending solution
  T/C: 103 % of control
endpoint: mean survival time, dose: 37.5 mg/kg/injection, schedule: Q01DX001 (ip), vehicle: steriod suspending solution
  T/C: 105 % of control

## Nc1nc(=S)[nH]c(C(=O)O)c1Cc1ccccc1
endpoint: mean survival time, dose: 10.0 mg/kg/injection, schedule: Q04DX003 (ip), vehicle: Klucel (hydroxypropylcellulose) (HPC)
  T/C: 101 % of control
endpoint: mean survival time, dose: 20.0 mg/kg/injection, schedule: Q01DX009 (ip), vehicle: Klucel (hydroxypropylcellulose) (HPC)
  T/C: 92 % of control
endpoint: mean survival time, dose: 20.0 mg/kg/injection, schedule: Q04DX003 (ip), vehicle: Klucel (hydroxypropylcellulose) (HPC)
  T/C: 95 % of control
endpoint: mean survival time, dose: 40.0 mg/kg/injection, schedule: Q01DX009 (ip), vehicle: Klucel (hydroxypropylcellulose) (HPC)
  T/C: 104 % of control
endpoint: mean survival time, dose: 40.0 mg/kg/injection, schedule: Q04DX003 (ip), vehicle: Klucel (hydroxypropylcellulose) (HPC)
  T/C: 98 % of control
endpoint: mean survival time, dose: 80.0 mg/kg/injection, schedule: Q01DX009 (ip), vehicle: Klucel (hydroxypropylcellulose) (HPC)
  T/C: 98 % of control

## CC1=CC(O)C(C(C)C)C1 (stereo unspecified)
[8]
  T/C: 102 % of control
[9]
  T/C: 98 % of control
[11]
  T/C: 98 % of control

## O=C(CC(O)(C(F)(F)F)C(F)(F)F)c1ccc([N+](=O)[O-])cc1
endpoint: mean survival time, dose: 50.0 mg/kg/injection, schedule: Q04DX003 (ip), vehicle: other
  T/C: 102 % of control
endpoint: mean survival time, dose: 100.0 mg/kg/injection, schedule: Q04DX003 (ip), vehicle: other
  T/C: 100 % of control
endpoint: mean survival time, dose: 200.0 mg/kg/injection, schedule: Q04DX003 (ip), vehicle: other
  T/C: 100 % of control
endpoint: mean survival time, dose: 400.0 mg/kg/injection, schedule: Q04DX003 (ip), vehicle: other
  T/C: 104 % of control

## CC(=O)OCC1OC(COC(C)=O)(c2ccc(C)cc2)C(OC(C)=O)C1OC(C)=O (stereo unspecified)
endpoint: mean survival time, dose: 50.0 mg/kg/injection, schedule: Q01DX001 (ip), vehicle: saline
  T/C: 97 % of control
[13]
  T/C: 103 % of control
[10]
  T/C: 94 % of control
[12]
  T/C: 100 % of control
